What all share (assay type): physicochemical
Data set [1] in a line: Solubility of photosensitive agent in polyvinylpyrrolidone/ethylcellosolve solution. The settings on record: Table 2; 5 g polyvinylpyrrolidone in 106 g ethylcellosolve; sodium salt (*): solubility varied with crystal form. The method, then:
The respective Amides synthesized in Examples 1 and 2 in amounts shown in Table 2 are dissolved in a solution comprising 5 g of polyvinylpyrrolidone (average molecular weight: 320,000) dissolved in 106 g of ethylcellosolve,to evaluate their solubility.

Experiment in data set [2]: as above
The settings on record: Table 4; 5 g polyvinylpyrrolidone in 106 g ethylcellosolve; sodium salt (*): solubility varied with crystal form.

Data set [3] is described as follows: Solubility in water. How it is done: (§1) The compounds shown in Table 7 were prepared using the same procedures as in Example 16, and each compound was measured for solubilities in 2.5% ethylcellosolve and water to obtain the results shown in Table 7.
Data set [4] can be described thus: Solubility in 2.5% ethylcellosolve. Details: key to Solubility in 2.5% ethylcellosolve, 25° C. / Solubility in 2.5% ethylcellosolve, 60° C.: Good: completely soluble; Fair: with small amounts of undissolved portion; Poor: with large amounts of undissolved portion. The settings on record: for Solubility in 2.5% ethylcellosolve, 25° C. / Solubility in 2.5% ethylcellosolve, 60° C.: Table 7; for solubility (comparison in words): compared to Comparative Examples 14-16, Table 7. The method, then:
as §1

A short description of data set [5]: Solubility in water. The source holds these as a separate data set.
A short description of data set [6]: Solubility in ethylcellosolve solution containing 4.5% polyvinylpyrrolidone and compatibility with binder polymers. The settings on record: Example 20. An excerpt:
A 4,4'-diazidostilbene-2,2'-disulfonic acid aqueous solution was obtained using the same procedures as in Example 15. It was mixed with dibutylamine and the pH value adjusted to 9.0 to deposit crystals. The crystals were filtered, washed with water, and dried to obtain dibutylamine salt of 4,4'-diazidostilbene-2,2'-disulfonic acid (yield: 91.2%).

Where [7] appears, read: listed as Comparative Example 16.
[8] abbreviates: listed as Comparative Example 15.

Structures can show the parent of a compound that is named as a salt. Where only a bound is given, the exact number is not on record here.

Regarding `[N-]=[N+]=Nc1ccc(C=Cc2ccc(N=[N+]=[N-])cc2S(=O)(=O)NCCCO)c(S(=O)(=O)NCCCO)c1` [Amide No. 1], the Solubility result in data set [1] was “Good”. Still for that read-out and setting: in the case of `[N-]=[N+]=Nc1ccc(C=Cc2ccc(N=[N+]=[N-])cc2S(=O)(=O)NCCO)c(S(=O)(=O)NCCO)c1` [Amide No. 2] it was “Good”; in that of `CC(CCO)NS(=O)(=O)c1cc(N=[N+]=[N-])ccc1C=Cc1ccc(N=[N+]=[N-])cc1S(=O)(=O)NC(C)CCO` (stereo not shown) [Amide No. 3], “Good”. As to `[N-]=[N+]=Nc1ccc(C=Cc2ccc(N=[N+]=[N-])cc2S(=O)(=O)NCCOCCO)c(S(=O)(=O)NCCOCCO)c1` [Amide No. 4], in data set [1], the Solubility entry was “Good”.

With `COCCOCCNS(=O)(=O)c1cc(N=[N+]=[N-])ccc1C=Cc1ccc(N=[N+]=[N-])cc1S(=O)(=O)NCCOCCOC` [Amide No. 7], the Solubility entry in data set [1] is recorded as “Good”. Same read-out and setting: the result for `CCOCCNS(=O)(=O)c1cc(N=[N+]=[N-])ccc1C=Cc1ccc(N=[N+]=[N-])cc1S(=O)(=O)NCCOCC` [Amide No. 8] reads “Good”. For `CCCCCCCCNS(=O)(=O)c1cc(N=[N+]=[N-])ccc1C=Cc1ccc(N=[N+]=[N-])cc1S(=O)(=O)NCCCCCCCC` [Amide No. 9], in data set [2], the Solubility entry is listed as “Good”. Still for that read-out and setting: in the case of `CC(C)CNS(=O)(=O)c1cc(N=[N+]=[N-])ccc1C=Cc1ccc(N=[N+]=[N-])cc1S(=O)(=O)NCC(C)C` [Amide No. 10] it was “Good”; in that of `CCCCCCCNS(=O)(=O)c1cc(N=[N+]=[N-])ccc1C=Cc1ccc(N=[N+]=[N-])cc1S(=O)(=O)NCCCCCCC` [Amide No. 11], “Good”. On to `CCCCN(C)S(=O)(=O)c1cc(N=[N+]=[N-])ccc1C=Cc1ccc(N=[N+]=[N-])cc1S(=O)(=O)N(C)CCCC` [Amide No. 14], for which the Solubility result in data set [2] is given as “Good”. As to `CCCCCN(CCCCC)S(=O)(=O)c1cc(N=[N+]=[N-])ccc1C=Cc1ccc(N=[N+]=[N-])cc1S(=O)(=O)N(CCCCC)CCCCC` [Amide No. 15], the Solubility result in data set [2] is “Good”. As for `[N-]=[N+]=Nc1ccc(C=Cc2ccc(N=[N+]=[N-])cc2S(=O)(=O)O)c(S(=O)(=O)O)c1` [Ammonium salt, reference compound], the Solubility result in data set [1] and in data set [2] was “Poor” throughout. The “Solubility in water, 25° C.” value in the data set “Solubility in water [3]” (Table 7, listed as Comparative Example 16) turned out to be 18%. The “Solubility in 2.5% ethylcellosolve, 25° C.” value in data set [4] (setting [7]) is “Poor”. Also, the “Solubility in 2.5% ethylcellosolve, 60° C.” value in data set [4] (setting [7]) is reported as “Poor”. The “Solubility (water, 25° C.)” value in the data set “Solubility in water [5]” (Table 5, listed as Comparative Example 12) was determined as 1.8%.

Consider `[N-]=[N+]=Nc1ccc(C=Cc2ccc(N=[N+]=[N-])cc2S(=O)(=O)Nc2ccccc2)c(S(=O)(=O)Nc2ccccc2)c1` [Arylamide A, reference compound], for which the Solubility entry in data set [1] is “Poor”. `[N-]=[N+]=Nc1ccc(C=Cc2ccc(N=[N+]=[N-])cc2S(=O)(=O)Nc2ccccc2)c(S(=O)(=O)Nc2ccccc2)c1` [Arylamide B, reference compound]: the Solubility entry in data set [2] is recorded as “Poor”. For `CC1CC(=Cc2ccc(N=[N+]=[N-])cc2S(=O)(=O)O)C(=O)C(=Cc2ccc(N=[N+]=[N-])cc2S(=O)(=O)O)C1` (stereo not shown) [Comparative Example 13, Na salt of 2,6-bis(4'-azidobenzal)-4-methyl-cyclohexanone-2,2'-disulfonic acid, reference compound], in “Solubility in water [5]” (Table 6), the “Solubility (water, 25° C.)” value amounted to 0.9%. On to `CCOCCOS(=O)(=O)c1cc(N=[N+]=[N-])ccc1C=Cc1ccc(N=[N+]=[N-])cc1S(=O)(=O)OCCOCC` [Ester B, reference compound], for which the Solubility entry in data set [1] is on record as “Good”. For the compound `CCCCOS(=O)(=O)c1cc(N=[N+]=[N-])ccc1C=Cc1ccc(N=[N+]=[N-])cc1S(=O)(=O)OCCCC` [Ester C, reference compound], the Solubility entry in data set [2] was “Good”. On to `[N-]=[N+]=Nc1ccc(C=Cc2ccc(N=[N+]=[N-])cc2S(=O)(=O)O)c(S(=O)(=O)O)c1` [Example 16], for which, in “Solubility in water [5]” (Table 5), the “Solubility (water, 25° C.)” value is given as at least 10%.

On to `[N-]=[N+]=Nc1ccc(C=Cc2ccc(N=[N+]=[N-])cc2S(=O)(=O)O)c(S(=O)(=O)O)c1` [Example 17, triethylamine salt of 4,4'-diazidostilbene-2,2'-disulfonic acid], for which the “Solubility (water, 25° C.)” value in the data set “Solubility in water [5]” (Table 5) is recorded as at least 10%.

For `CC1CC(=Cc2ccc(N=[N+]=[N-])cc2S(=O)(=O)O)C(=O)C(=Cc2ccc(N=[N+]=[N-])cc2S(=O)(=O)O)C1` (stereo not shown) [Example 18], the “Solubility (water, 25° C.)” value in the data set “Solubility in water [5]” (Table 6) is listed as 7.0%.

`CC1CC(=Cc2ccc(N=[N+]=[N-])cc2S(=O)(=O)O)C(=O)C(=Cc2ccc(N=[N+]=[N-])cc2S(=O)(=O)O)C1` (stereo not shown) [Example 19, triethylamine salt of 2,6-bis-(4'-azidobenzal)-4-methyl-cyclohexanone-2,2'-disulfonic acid]: the “Solubility (water, 25° C.)” value in “Solubility in water [5]” (Table 6) was at least 10%. As to `[N-]=[N+]=Nc1ccc(C=Cc2ccc(N=[N+]=[N-])cc2S(=O)(=O)O)c(S(=O)(=O)O)c1` [Example 20, dibutylamine salt of 4,4'-diazidostilbene-2,2'-disulfonic acid], in data set [6], the “compatibility with binder polymers” value was “high in compatibility with binder polymers” and the “soluble in an ethylcellosolve solution containing 4.5% polyvinylpyrrolidone” value was at least 5%. Also, the “solubility in water (in words)” value in “Solubility in water [5]” (Example 20) is reported as “very low in solubility in water”. In the case of `[N-]=[N+]=Nc1ccc(C=Cc2ccc(N=[N+]=[N-])cc2S(=O)(=O)O)c(S(=O)(=O)O)c1` [Example 21], in “Solubility in water [3]” (Table 7), the “Solubility in water, 25° C.” value turned out to be 6.5%. In data set [4], the “Solubility in 2.5% ethylcellosolve, 25° C.” value is recorded as “Good”; the “Solubility in 2.5% ethylcellosolve, 60° C.” value was “Good”; the “solubility (comparison in words)” value is given as “good solubilities”. Regarding `[N-]=[N+]=Nc1ccc(C=Cc2ccc(N=[N+]=[N-])cc2S(=O)(=O)O)c(S(=O)(=O)O)c1` [Example 22], in “Solubility in water [3]” (Table 7), the “Solubility in water, 25° C.” value is on record as at least 10%. Besides, in data set [4], the “Solubility in 2.5% ethylcellosolve, 25° C.” value was “Good”; the “Solubility in 2.5% ethylcellosolve, 60° C.” value was “Good”; the “solubility (comparison in words)” value is recorded as “good solubilities”. For `CCCNS(=O)(=O)c1cc(N=[N+]=[N-])ccc1C=Cc1ccc(N=[N+]=[N-])cc1S(=O)(=O)NCCC` [Lower alkyl amide A, reference compound], the Solubility result in data set [2] is “Poor”. As to `[N-]=[N+]=Nc1ccc(C=Cc2ccc(N=[N+]=[N-])cc2S(=O)(=O)[O-])c(S(=O)(=O)[O-])c1.[Na+].[Na+]` [Sodium salt, sodium 4,4'-diazidostilbene-2,2'-disulfonate, reference compound], the Solubility result in data set [1] was “Fair”. Further, in data set [4], the “Solubility in 2.5% ethylcellosolve, 25° C.” value is recorded as “Fair” and the “Solubility in 2.5% ethylcellosolve, 60° C.” value is recorded as “Good”. Also, the Solubility entry in data set [2] is “Fair”. Besides, in the data set “Solubility in water [5]” (Table 5), the “Solubility (water, 25° C.)” value turned out to be 3.3%. Turning to `[N-]=[N+]=Nc1ccc(C=Cc2ccc(N=[N+]=[N-])cc2S(=O)(=O)O)c(S(=O)(=O)O)c1` [compound 11, reference compound], in data set [4] (setting [8]), the “Solubility in 2.5% ethylcellosolve, 25° C.” value was “Poor” and the “Solubility in 2.5% ethylcellosolve, 60° C.” value is reported as “Poor”. Further, the “Solubility (water, 25° C.)” value in “Solubility in water [5]” (Table 5) came out at 3.0%.

Values taken from patent US5041570A, “Photosensitive 4,4'-diazidostilbene derivative” (priority 1988, dated 1991).
